Patent publication US10035771B2 (priority 2013, dated 2018)

Assays:
[1] = biological target: type A botulinum toxin (BoNT/A) (Clostridium botulinum, UniProt P0DPI1); design: species or system Balb/c mice; settings: mouse, in vivo, ip
[2] = biological target: type B botulinum toxin (BoNT/B) (Clostridium botulinum, UniProt P10844); design: species or system Balb/c mice; settings: mouse, in vivo, ip
[3] = biological target: type A botulinum toxin light chain (BoNT/A-LC) (Clostridium botulinum, UniProt P0DPI1); assay: biochemical; settings: for inhibition at 100 µg/mL: read-out: Inhibition rate %
type A botulinum toxin light chain (BoNT/A-LC), sequence (P0DPI1 2-448 limits assumed): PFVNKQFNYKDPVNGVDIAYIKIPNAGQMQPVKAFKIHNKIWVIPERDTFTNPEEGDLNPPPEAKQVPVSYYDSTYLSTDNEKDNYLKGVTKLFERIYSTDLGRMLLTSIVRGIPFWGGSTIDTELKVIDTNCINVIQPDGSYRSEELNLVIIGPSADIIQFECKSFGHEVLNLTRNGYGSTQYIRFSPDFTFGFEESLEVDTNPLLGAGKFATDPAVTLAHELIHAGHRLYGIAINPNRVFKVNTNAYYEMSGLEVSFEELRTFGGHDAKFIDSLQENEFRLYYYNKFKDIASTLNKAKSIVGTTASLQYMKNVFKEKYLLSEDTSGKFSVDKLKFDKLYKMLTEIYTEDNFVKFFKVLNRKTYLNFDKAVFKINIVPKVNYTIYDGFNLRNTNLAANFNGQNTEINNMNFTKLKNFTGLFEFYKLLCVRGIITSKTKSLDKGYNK

[4] = biological target: type B botulinum toxin light chain (BoNT/B-LC) (Clostridium botulinum, UniProt P10844); assay: biochemical; settings: for inhibition at 100 µg/mL: read-out: Inhibition rate %
type B botulinum toxin light chain (BoNT/B-LC), sequence (P10844 2-441 limits assumed): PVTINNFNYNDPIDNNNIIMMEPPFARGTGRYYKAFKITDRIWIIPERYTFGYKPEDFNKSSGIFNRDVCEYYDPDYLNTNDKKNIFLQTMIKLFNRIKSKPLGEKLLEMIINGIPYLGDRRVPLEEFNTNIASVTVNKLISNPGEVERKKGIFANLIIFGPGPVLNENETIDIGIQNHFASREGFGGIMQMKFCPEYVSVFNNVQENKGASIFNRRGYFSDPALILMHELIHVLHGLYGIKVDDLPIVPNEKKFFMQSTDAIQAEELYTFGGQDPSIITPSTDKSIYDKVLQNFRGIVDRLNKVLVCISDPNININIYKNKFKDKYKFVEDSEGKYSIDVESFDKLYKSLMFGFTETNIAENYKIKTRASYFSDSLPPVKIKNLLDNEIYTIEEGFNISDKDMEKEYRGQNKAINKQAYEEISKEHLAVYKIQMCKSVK

[5] = biological target: type E botulinum toxin light chain (BoNT/E-LC) (Clostridium botulinum, UniProt Q00496); assay: biochemical; settings: for inhibition at 100 µg/mL: read-out: Inhibition rate %
type E botulinum toxin light chain (BoNT/E-LC), sequence (Q00496 2-422 limits assumed): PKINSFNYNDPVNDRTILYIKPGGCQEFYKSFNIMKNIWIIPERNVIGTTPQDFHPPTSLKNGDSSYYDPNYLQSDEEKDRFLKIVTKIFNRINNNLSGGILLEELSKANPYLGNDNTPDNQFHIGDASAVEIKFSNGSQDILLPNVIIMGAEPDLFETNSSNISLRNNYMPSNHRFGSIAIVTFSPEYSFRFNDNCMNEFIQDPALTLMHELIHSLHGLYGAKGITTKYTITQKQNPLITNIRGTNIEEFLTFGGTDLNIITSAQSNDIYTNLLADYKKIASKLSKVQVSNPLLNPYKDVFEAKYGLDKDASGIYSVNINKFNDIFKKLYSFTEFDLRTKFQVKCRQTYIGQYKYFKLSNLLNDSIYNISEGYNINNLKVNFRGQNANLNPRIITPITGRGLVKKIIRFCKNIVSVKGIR

BoNT/F-LC = BoNT/F-LC (Clostridium botulinum, UniProt A7GBG3); assay: biochemical; settings: for inhibition at 100 µg/mL: read-out: Inhibition rate %
BoNT/F-LC, sequence (A7GBG3 1-436 limits assumed): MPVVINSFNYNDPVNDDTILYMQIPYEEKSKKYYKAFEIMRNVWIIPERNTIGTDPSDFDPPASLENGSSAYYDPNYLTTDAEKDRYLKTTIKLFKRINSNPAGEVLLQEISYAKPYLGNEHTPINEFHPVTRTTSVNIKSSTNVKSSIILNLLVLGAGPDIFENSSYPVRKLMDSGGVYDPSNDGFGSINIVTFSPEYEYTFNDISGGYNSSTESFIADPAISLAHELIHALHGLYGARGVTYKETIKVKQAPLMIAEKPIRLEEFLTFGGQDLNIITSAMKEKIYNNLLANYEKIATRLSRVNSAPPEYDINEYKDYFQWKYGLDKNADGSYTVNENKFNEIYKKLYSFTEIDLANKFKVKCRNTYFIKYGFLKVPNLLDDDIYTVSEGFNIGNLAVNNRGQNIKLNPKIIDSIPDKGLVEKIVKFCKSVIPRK

[6] = biological target: tetanus toxin light chain (TeNt-LC) (Clostridium tetani, UniProt P04958); assay: biochemical; settings: for inhibition at 200 µg/mL: read-out: Inhibition rate %
tetanus toxin light chain (TeNt-LC), sequence (P04958 2-457 limits assumed): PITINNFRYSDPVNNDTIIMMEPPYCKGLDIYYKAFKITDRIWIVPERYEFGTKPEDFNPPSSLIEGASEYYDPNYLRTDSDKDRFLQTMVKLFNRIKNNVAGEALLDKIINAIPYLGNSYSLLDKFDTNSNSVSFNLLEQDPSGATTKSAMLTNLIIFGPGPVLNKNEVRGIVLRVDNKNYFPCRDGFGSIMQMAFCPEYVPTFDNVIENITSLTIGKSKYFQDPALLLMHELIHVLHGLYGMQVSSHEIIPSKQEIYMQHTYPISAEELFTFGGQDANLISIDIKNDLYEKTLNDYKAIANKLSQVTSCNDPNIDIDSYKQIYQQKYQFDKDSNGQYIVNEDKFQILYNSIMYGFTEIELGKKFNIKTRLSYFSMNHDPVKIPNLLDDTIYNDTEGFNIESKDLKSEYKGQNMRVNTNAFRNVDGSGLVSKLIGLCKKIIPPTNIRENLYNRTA

[7] = biological target: light chain of type A botulinum toxin (Clostridium botulinum, UniProt P0DPI1); settings: read-out: Ki value; cited from earlier work

type A botulinum toxin (BoNT/A), sequence (P0DPI1 2-448 limits assumed): as the sequence (P0DPI1 2-448 limits assumed) above
type A botulinum toxin (BoNT/A), sequence (P0DPI1 449-1296 limits assumed): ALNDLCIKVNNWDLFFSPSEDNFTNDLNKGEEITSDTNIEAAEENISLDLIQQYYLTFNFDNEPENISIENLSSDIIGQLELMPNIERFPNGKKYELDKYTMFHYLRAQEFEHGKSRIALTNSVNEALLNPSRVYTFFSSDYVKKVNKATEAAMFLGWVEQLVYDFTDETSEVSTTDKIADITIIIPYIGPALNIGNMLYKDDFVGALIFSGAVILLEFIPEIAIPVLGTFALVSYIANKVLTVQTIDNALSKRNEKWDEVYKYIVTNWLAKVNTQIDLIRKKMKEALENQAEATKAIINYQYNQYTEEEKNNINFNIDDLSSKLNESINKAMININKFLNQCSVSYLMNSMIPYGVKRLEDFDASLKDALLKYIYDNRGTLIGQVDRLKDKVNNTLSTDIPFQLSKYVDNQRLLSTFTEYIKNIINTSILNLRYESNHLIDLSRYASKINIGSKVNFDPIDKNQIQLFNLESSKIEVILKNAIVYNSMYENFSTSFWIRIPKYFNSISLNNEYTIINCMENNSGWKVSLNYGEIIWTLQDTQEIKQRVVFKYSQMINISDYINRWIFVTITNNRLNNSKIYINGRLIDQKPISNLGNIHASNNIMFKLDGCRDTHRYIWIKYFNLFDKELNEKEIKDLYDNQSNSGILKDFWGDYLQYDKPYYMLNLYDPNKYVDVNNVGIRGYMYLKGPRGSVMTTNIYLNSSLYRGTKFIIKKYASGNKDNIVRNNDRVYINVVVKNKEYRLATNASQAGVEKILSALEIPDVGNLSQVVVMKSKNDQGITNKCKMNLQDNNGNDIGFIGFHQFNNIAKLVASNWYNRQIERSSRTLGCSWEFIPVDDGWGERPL
type B botulinum toxin (BoNT/B), sequence (P10844 2-441 limits assumed): as the sequence (P10844 2-441 limits assumed) above
type B botulinum toxin (BoNT/B), sequence (P10844 442-1291 limits assumed): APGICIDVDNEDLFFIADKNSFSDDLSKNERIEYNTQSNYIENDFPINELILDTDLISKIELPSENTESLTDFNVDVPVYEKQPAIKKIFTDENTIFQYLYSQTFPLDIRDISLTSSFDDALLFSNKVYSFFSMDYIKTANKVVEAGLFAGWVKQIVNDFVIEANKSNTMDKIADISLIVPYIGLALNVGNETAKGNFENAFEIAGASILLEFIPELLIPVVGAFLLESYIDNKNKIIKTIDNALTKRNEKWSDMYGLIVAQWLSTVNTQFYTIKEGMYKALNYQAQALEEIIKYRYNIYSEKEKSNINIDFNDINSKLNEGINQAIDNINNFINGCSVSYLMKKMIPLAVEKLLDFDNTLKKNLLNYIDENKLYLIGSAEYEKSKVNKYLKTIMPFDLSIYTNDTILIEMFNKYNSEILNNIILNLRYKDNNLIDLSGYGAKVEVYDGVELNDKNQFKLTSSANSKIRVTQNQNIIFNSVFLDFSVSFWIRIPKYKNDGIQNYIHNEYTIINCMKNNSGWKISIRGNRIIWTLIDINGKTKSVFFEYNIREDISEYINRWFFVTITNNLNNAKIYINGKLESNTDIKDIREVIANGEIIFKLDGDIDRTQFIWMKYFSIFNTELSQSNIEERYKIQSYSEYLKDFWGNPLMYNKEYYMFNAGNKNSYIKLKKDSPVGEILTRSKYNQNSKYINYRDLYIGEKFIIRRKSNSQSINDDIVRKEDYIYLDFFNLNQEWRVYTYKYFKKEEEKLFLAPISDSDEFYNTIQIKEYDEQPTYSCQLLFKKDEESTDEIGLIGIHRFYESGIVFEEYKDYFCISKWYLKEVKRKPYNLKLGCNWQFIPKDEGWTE

SMILES | % survival [2] [%] | inhibition at 100 µg/mL [3] [%] | inhibition at 100 µg/mL [4] [%] | inhibition at 100 µg/mL [5] [%] | inhibition at 100 µg/mL (BoNT/F-LC) [%] | inhibition at 200 µg/mL [6] [%] | also measured
O=C(CSc1ncccc1C(=O)[O-])Nc1ccc(OC(F)(F)F)cc1.[K+] [Example 21] | 40 |  |  |  |  |  | % survival [1]: 40%
O=C(CSc1ncccc1C(=O)[O-])Nc1cc(F)ccc1Cl.[K+] [Example 18, 2-(2-(5-fluoro-2-chlorophenyl)-2-acetylthio)nicotinate potassium] | 40 | 11.4 | 30.2 | 17.2 | 16.2 | 19.3 | % survival [1]: 0%
COc1ccc(Cl)c(NC(=O)CSc2ncccc2C(=O)[O-])c1.[K+] [Example 14] |  |  |  |  |  |  | % survival [1]: 20%
O=C(CSc1ncccc1C(=O)[O-])Nc1cc(Cl)ccc1OCc1ccccc1.[K+] [Example 23, sodium] |  | 78 | 55.7 | 50.7 | 35.8 | 30.3 | 
COc1ccc(F)cc1NC(=O)CSc1ncccc1C(=O)O [Example 13, potassium] |  | 20.3 | 22 | 18.3 | 16.4 | 14.6 | 
COC(=O)c1ccc(O)c2nc3c(C=O)c(O)cc(O)c3nc12 [lomofungin] |  |  |  |  |  |  | Ki [7]: 6.7 ± 0.7 µM
CCOc1ccccc1NC(=O)CSc1ncccc1C(=O)O [Example 5] |  | 2.7 | 4.3 | 6.8 | 5 | 8 | 
O=C(CSc1ncccc1C(=O)[O-])Nc1ccccc1Cl.[K+] [Example 8] | 0 |  |  |  |  |  | % survival [1]: 80%
O=C(CSc1ncccc1C(=O)[O-])Nc1cc(Cl)ccc1OCc1ccccc1.[K+] [Example 23] | 80 |  |  |  |  |  | % survival [1]: 100%
O=C(CSc1ncccc1C(=O)[O-])Nc1cc(Br)ccc1Br.[K+] [Example 9, potassium] |  | 9.3 | 29.2 | 8.2 | 12.1 | 15.2 | 
O=C(CSc1ncccc1C(=O)[O-])Nc1ccc(Br)cc1.[K+] [Example 12] | 80 |  |  |  |  |  | 
O=C(CSc1ncccc1C(=O)[O-])Nc1cc(OC(F)(F)F)ccc1Br.[K+] [Example 26, potassium] |  | 27.4 | 30 | 12.1 | 13.1 | 17.1 | 
COc1ccc(Cl)cc1NC(=O)CSc1ncccc1C(=O)O [Example 2] |  | 12.1 | 20.5 | 11.6 | 13.2 | 12.3 | 
COc1ccc(OC)c(NC(=O)CSc2ncccc2C(=O)O)c1 [Example 16, potassium] |  | 17.9 | 20.1 | 5.2 | 9.8 | 16.2 | 
O=C(CSc1ncccc1C(=O)[O-])Nc1ccc(Br)cc1.[K+] [Example 12, potassium] |  | 9.4 | 29.1 | 12.3 | 13.2 | 16.4 | 
O=C(CSc1ncccc1C(=O)O)Nc1cc(F)ccc1F [Example 22, potassium] |  | 3.2 | 2.7 | 2.1 | 3.4 | 4.4 | 
O=C(CSc1ncccc1C(=O)[O-])Nc1ccc(OC(F)(F)F)cc1.[K+] [Example 21, potassium] |  | 14.3 | 28 | 20.3 | 16.5 | 17.4 | 
COc1ccc(Cl)cc1NC(=O)CSc1ncccc1C(=O)[O-].[K+] [Example 3] | 60 |  |  |  |  |  | Inhibition rate % [3]: 11.3%; Inhibition rate % [4]: 30.2%; Inhibition rate % [5]: 16.5%; Inhibition rate % (BoNT/F-LC): 19.2%; Inhibition rate % [6]: 20.2%; % survival [1]: 40%

SMILES | % survival [2] [%] | inhibition at 100 µg/mL [3] [%] | inhibition at 100 µg/mL [4] [%] | inhibition at 100 µg/mL [5] [%] | inhibition at 100 µg/mL (BoNT/F-LC) [%] | inhibition at 200 µg/mL [6] [%] | also measured
COc1cc(Cl)cc(NCC(=O)Sc2ncccc2C(=O)[O-])c1.[Na+] [Example 4, 2-(2-(3-chloro-5-methoxyanilino)acetylthio)nicotinate sodium] | 100 | 45.4 | 95.5 | 43.2 | 48.6 | 34.5 | % survival [1]: 100%
O=C(CSc1ncccc1C(=O)[O-])Nc1ccccc1OC(F)(F)F.[K+] [Example 24] | 80 |  |  |  |  |  | 
O=C(CSc1ncccc1C(=O)[O-])Nc1cccc(Cl)c1.[K+] [Example 20, potassium] |  | 6.8 | 41 | 4.2 | 17.8 | 22.2 | 
O=C(CSc1ncccc1C(=O)O)Nc1ccc(F)cc1 [Example 19, potassium] |  | 3 | 3 | 6.8 | 4 | 2.7 | 
O=C(CSc1ncccc1C(=O)[O-])Nc1cccc(Cl)c1.[K+] [Example 20] | 0 |  |  |  |  |  | 
O=C(CSc1ncccc1C(=O)[O-])Nc1ccccc1Cl.[K+] [Example 8, potassium] |  | 25.1 | 35 | 27.6 | 15.3 | 21.1 | 
COc1ccc(Cl)cc1NC(=O)CSc1cc(C(=O)[O-])ccn1.[K+] [Example 15] |  |  |  |  |  |  | % survival [1]: 80%
O=C(CSc1ncccc1C(=O)[O-])Nc1cc(Br)ccc1Br.[K+] [Example 9] | 20 |  |  |  |  |  | 
O=C(CSc1ncccc1C(=O)[O-])Nc1cc(OC(F)(F)F)ccc1Br.[K+] [Example 26] | 20 |  |  |  |  |  | 
COc1ccc(Cl)c(NC(=O)CSc2ncccc2C(=O)[O-])c1.[K+] [Example 14, potassium] |  | 19.8 | 24.2 | 13.5 | 9.8 | 12.3 | 
CCCOc1ccc(Cl)cc1NC(=O)CSc1ncccc1C(=O)O [Example 7] |  | 18.1 | 24.2 | 14 | 11.3 | 20 | 
O=C(CSc1ncccc1C(=O)O)Nc1cccc(OC(F)(F)F)c1 [Example 25, potassium] |  | 2.9 | 15.2 | 4.3 | 3 | 5.7 | 
COc1ccc(Cl)cc1NC(=O)CSc1cc(C(=O)[O-])ccn1.[K+] [Example 15, potassium] |  | 3 | 19.4 | 16.3 | 7.2 | 23.5 | 
CCOc1ccc(Cl)cc1NC(=O)CSc1ncccc1C(=O)O [Example 6] |  | 14.7 | 8.6 | 16.8 | 6.7 | 4.7 | 
O=C(CSc1ncccc1C(=O)[O-])Nc1ccccc1OC(F)(F)F.[K+] [Example 24, potassium] |  | 8.9 | 29.3 | 5.6 | 11.2 | 13.2 | 
COc1ccc(Cl)cc1NCC(=O)Sc1ncccc1C(=O)[O-].[Na+] [Example 1, 2-(2-(5-chloro-2-methoxyanilino)acetylthio)nicotinate sodium] | 40 | 8.4 | 27.8 | 7.32 | 12.2 | 12.8 | 
O=C(CSc1ncccc1C(=O)O)Nc1ccccc1 [Example 17, 2-(anilino-2-acetylthio)nicotinic Acid] |  | 15.4 | 3.7 | 18 | 8.3 | 6.4 | 
